Test results from publication PMC10092101 (Chemmedchem, 2022).

Key:
CMKLR1 [1] = conditions: ref [13], [22]; cited from earlier work
GPR1 = conditions: ref [13], [22]; cited from earlier work
CCRL2 = conditions: cited from earlier work
Nluc‐CMKLR1‐eYFP = target: T1, Nluc‐CMKLR1‐eYFP (human, UniProt Q99788-2 1-371); test: FRET or BRET
T1 sequence: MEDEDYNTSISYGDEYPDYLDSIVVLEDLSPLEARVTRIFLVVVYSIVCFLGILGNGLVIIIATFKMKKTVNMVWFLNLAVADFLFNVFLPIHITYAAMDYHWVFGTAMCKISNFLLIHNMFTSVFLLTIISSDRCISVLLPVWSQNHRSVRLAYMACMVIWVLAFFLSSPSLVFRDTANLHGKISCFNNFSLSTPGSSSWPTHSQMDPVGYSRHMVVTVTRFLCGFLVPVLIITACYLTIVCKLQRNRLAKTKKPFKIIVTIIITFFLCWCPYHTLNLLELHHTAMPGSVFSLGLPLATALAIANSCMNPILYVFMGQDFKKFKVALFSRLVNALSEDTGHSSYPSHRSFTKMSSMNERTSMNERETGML

Nluc‐GPR1‐eYFP = target: T2, Nluc‐GPR1‐eYFP (human, UniProt P46091 1-355); test: FRET or BRET
T2 sequence: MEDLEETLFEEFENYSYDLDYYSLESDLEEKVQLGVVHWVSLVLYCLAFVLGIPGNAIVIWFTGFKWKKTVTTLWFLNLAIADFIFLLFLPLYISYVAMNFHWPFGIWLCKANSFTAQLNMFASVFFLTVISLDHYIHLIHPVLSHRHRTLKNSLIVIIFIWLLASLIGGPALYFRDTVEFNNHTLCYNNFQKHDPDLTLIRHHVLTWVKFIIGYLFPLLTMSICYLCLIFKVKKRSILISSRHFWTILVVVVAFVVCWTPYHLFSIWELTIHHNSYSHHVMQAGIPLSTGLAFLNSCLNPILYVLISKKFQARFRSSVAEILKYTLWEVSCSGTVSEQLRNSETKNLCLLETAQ

CMKLR1 [2] = target: T3, CMKLR1 (Homo sapiens, UniProt Q99788); test: IP-One assay; assay type: cell-based; conditions: [K^141(TAMRA)]ChemS157 vs ChemS157, COS-7 cells
T3 sequence (Q99788 1-371 isoform Q99788-2): T1 sequence

Nluc‐GPR1 = target: T4, Nluc‐GPR1 (Homo sapiens, UniProt P46091); test: NanoBRET saturation binding at Nluc-GPR1; conditions: Nluc-GPR1 vs Nluc-CMKLR1
T4 sequence (P46091 1-355): T2 sequence

ChemS157: most active chemerin form truncated at position S157, 137 amino acids; full‐length protein by recombinant expression
binding affinity (CMKLR1 [1]): high affinity
binding affinity (GPR1): high affinity
binding affinity (CCRL2; ref [13], [22]): high affinity

chemerin: 16 kDa protein expressed in liver, skin, lung or white adipose tissue; adipokine
cellular response at CCRL2 (CCRL2; described to bind chemerin, no reference printed directly): leads to no cellular response

B1: [K^141(TAMRA)]ChemS157 (ligand)
chain: ELTEAQRRGLQVALEEFHKHPPVQWAFQETSVESAVDTPFPAGIFVRLEFKLQQTSCRKRDWKKPECKVRPNGRKRKCLACIKLGSEDKVLGRLVHCPIETQVLREAEEHQETQCLRVQRKGEDPHSFYFPGQFAFS
modifications: TAMRA on the side chain of lysine 141
EC50 (Nluc‐CMKLR1‐eYFP): 75.9 nM
EC50 (Nluc‐GPR1‐eYFP): 112 nM

B2: [K^141(TAMRA)]ChemS157: TAMRA‐labeled full-length ChemS157, lysine 141 labeled, semi‐synthetic by native chemical ligation (protein)
chain: B1 chain
modifications: TAMRA on the side chain of lysine 141; left off: [His]10-[…], N-terminal, kept
EC50 fold higher than ChemS157 without the TAMRA label (CMKLR1 [2]): 2.5 fold
shift of EC50 between Nluc-CMKLR1 and Nluc-GPR1 (Nluc‐GPR1): 1.5 fold
